These results are taken from US20230028224A1, “Novel Topical Therapy” (priority 2019, published 2023).

The structures appear in SMILES notation.

Assay [1] can be described thus: injection of occipital nerves followed by SPG block. Format: in vivo. The note with it: 0.5% injected into occipital nerves, then SPG block. An excerpt: (§1) Another aspect of the invention is the combination of stimulation of SPG with branches of Trigeminal nerves, or occipital nerves. There is known C-2 and 3 connection with Trigeminal nerve and SPG and likely with C1.

Assay [2] in a line: injection of the Supratrochlear nerve followed by SPG block. Format: in vivo. The note with it: bupivacaine 0.5% injected to the Supratrochlear nerve, SPG block subsequently.
Source text: as §1

For the compound `CCCCN1CCCCC1C(=O)Nc1c(C)cccc1C` (centres unmarked) [bupivacaine], the headache entry in assay [1] is “headache was further decreased with SPG block”. Moreover, the “result of subsequent SPG block” value in assay [2] is “better result with SPG block subsequently”.
